Measurements taken from patent US7166744B2, “Retinoid derivatives and methods for producing said compounds and anti-cancer pharmaceutical composition comprising said compounds” (Chebigen Co., Ltd., priority 2001, dated 2007).

Tests used:
Type in all cases: cell-based
[1] = tested on: CaSki cervix cancer cells; test: MTT proliferation assay, CaSki; settings: 48 hours, uterine cancer
Procedure: (§1) The effects of test compounds on proliferation of various cancer cells was examined by 3-(4,5-dimethylthiazol-2-yl)-2,5-diphenyltetrazolium bromide (MTT, Sigma) assay in a dose dependent manner. In the MTT assay, colon, liver, cervix, ovary, and breast cancer cell lines were treated with test compounds at various concentrations. Living cancer cells reduce MTT to dark blue MTT formazan that would be measured by absorbance.
(§2) Colon cancer cells, HCT116, DLD-1 and HT29, cervix cancer cells, HeLa and CaSki, ovary cancer cells, SKOV-3, 2774 and OVCAR-3, liver cancer cells, SK-Hep-1, PLCPRF5 and HepG2, and breast cancer cells, ZR75-1 and MDA-MB 231 were seeded at an initial density of 3000 cells per well in 96-well plates. After attachment of cells to the walls of the wells, the medium containing fresh retinoid was treated with various concentrations (0.5 μM, 1 μM, 2.5 μM, 5 μM, 10 μM) for 48 hours. 50 μl of MTT solution (2 mg/ml in PBS) was added to cell culture media. The reaction micture was incubated at 37° C. in a 5% CO2 atmosphere for 4 hours. The supernatant was removed and 150 μl of DMSO was added. The optical density was measured spectrophotometrically at 550 nm. […] For other retinoid derivatives according to the present invention, absorbances were measured by this procedure and IC50 values, concentrations required for 50% growth inhibition, were determined.

[2] = tested on: colon cancer cells; test: MTT proliferation assay, colon cancer cells (Table 1); settings: 48 hours, concentration required for 50% growth inhibition, read-out: IC50, activities of various retinoid derivatives in colon cancer cells
Procedure: as §1, §2

[3] = tested on: OVCAR-3 ovary cancer cells; test: MTT proliferation assay, OVCAR-3; settings: ovarian cancer
Procedure: as §1, §2

[4] = tested on: HCT116 cells; test: In vitro matrigel invasion assay, HCT116; settings: HCT116, 1 μM, 8 hours, matrigel-coated filter
Procedure: Meanwhile, to determine the effect of KCBG60 on the invasion potential of HCT116 cells, in vitro assay was performed. […] After cultivation for a predetermined period of time, the number of cells migrating to lower side of the filter was measured to determin the invasion level (FIG. 15).

[5] = tested on: 2774 ovary cancer cells; test: MTT proliferation assay, 2774; settings: 48 hours, ovarian cancer
Procedure: as §1, §2

[6] = target: T1, RARα (Homo sapiens, UniProt P10276); test: CAT reporter assay, RARα; settings: 1 μM, control = 1.0; for expression level of CAT enzyme, RARα −: column '−'
T1 construct: expressed in transfected cells
T1 sequence (P10276 1-462): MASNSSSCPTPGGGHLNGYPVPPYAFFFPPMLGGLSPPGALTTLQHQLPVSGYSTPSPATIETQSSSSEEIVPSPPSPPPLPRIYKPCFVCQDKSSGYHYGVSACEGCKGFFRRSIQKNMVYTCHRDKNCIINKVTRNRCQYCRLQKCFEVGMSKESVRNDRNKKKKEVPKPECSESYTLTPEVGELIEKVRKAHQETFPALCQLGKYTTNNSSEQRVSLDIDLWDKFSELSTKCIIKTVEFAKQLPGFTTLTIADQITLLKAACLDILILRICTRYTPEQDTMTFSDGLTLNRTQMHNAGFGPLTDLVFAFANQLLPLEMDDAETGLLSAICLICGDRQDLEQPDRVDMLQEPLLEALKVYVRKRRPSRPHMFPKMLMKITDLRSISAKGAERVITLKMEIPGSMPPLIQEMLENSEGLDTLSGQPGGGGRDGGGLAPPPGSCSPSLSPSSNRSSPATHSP
Excerpt: In order to confirm the effect of KCBG60 according to the present invention on retinoid receptor activity, cells were cotransfected with expression vectors of receptor subfamilies and reporter genes. As the reporter gene, chloramphenicol acetyltransferase (CAT) with a transcription control site reactive to respective receptors was used.

[7] = tested on: HCT116 colon cancer cells; test: MTT proliferation assay, HCT116
Procedure: as §1, §2

[8] = target: T2, RXRα (Homo sapiens, UniProt P19793); test: CAT reporter assay, RXRα; settings: 1 μM, control = 1.0, RA = 9-cis RA; for expression level of CAT enzyme, RXRα −: column '−'
T2 construct: expressed in transfected cells
T2 sequence (P19793 1-462): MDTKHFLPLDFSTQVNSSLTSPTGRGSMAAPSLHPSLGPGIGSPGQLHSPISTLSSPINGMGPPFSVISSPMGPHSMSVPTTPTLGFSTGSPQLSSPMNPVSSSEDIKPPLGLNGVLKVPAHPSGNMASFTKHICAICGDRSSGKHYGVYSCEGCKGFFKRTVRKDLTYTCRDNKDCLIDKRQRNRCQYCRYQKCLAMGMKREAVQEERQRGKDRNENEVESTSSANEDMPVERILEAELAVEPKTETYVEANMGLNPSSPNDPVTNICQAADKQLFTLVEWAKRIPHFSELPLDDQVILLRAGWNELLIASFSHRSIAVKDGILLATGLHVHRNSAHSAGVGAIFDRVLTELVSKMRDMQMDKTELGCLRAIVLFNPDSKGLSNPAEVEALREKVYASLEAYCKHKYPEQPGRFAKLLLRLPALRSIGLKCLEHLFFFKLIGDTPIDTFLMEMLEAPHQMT
Excerpt: As the reporter gene, chloramphenicol acetyltransferase (CAT) with a transcription control site reactive to respective receptors was used.

[9] = tested on: MMP-1 mRNA expression; test: RT-PCR of MMP-1 mRNA in HCT116; settings: HCT116, 1 μM; for inhibition of MMP-1 mRNA expression: 36 hours
Procedure: Previously, it was shown that the synthetic retinoid derivatives inhibit the transcriptional activity of AP-1. Also, it is well known that MMP (matrix metalloproteinase), a main target gene of AP-1 is involved in metastasis of cancer cells. Therefore, the inhibitive effects of the retinoid derivatives on metastasis of cancer was examined by RT-PCR analysis. Colon cancer HCT116 cells were treated with 1 μM retinoid for 36 hours. RNA was isolated from the cells and mRNA expression levels of MMP-1, -2 and -3 were analyzed by RT-PCR. […] As the control, GAPDH was used and it was confirmed that its expression was not affected by retinoid. Meanwhile, the expression level of MMP-3 was affected weakly by KCBG40, intermediately by KCBG41 but strongly by KCBG10 (FIG. 9).
RNA was isolated from the cells and mRNA expression levels of MMP-1, -2 and -3 were analyzed by RT-PCR (FIG. 14).

| Molecule | IC50 ([1]; Homo sapiens, Ca-Ski) | IC50 [2] | IC50 ([3]; Homo sapiens, OVCAR-3, 48 hours) | IC50 [5] | IC50 ([7]; Homo sapiens, HCT-116, 48 hours) | IC50 [1] | IC50 ([3]; 48 hours) | IC50 ([7]; 48 hours) | reduction of the number of invaded cells [4] | expression level of CAT enzyme, RARα + [6] | expression level of CAT enzyme, RARα − [6] | expression level of CAT enzyme, RXRα + [8] | expression level of CAT enzyme, RXRα − [8] | inhibition of MMP-1 mRNA expression [9] | MMP-1 mRNA reduction compared to ATRA and phenyl butylate ([9]; 24 hours) | reduction of MMP-1 mRNA level ([9]; 24 hours) |
| --- | --- | --- | --- | --- | --- | --- | --- | --- | --- | --- | --- | --- | --- | --- | --- | --- |
| CC1=C(/C=C/C(C)=C/C=C/C(C)=C/C(=O)Nc2ccc(O)cc2)C(C)(C)CCC1 [HPR, (2E,4E,6E,8E)-[3,7-dimethyl-9-(2,6,6-trimethylcyclohex-1-enyl)-nona-2,4,6,8-tetraenoylamino]-4-hydroxyphenylamide] | – | 6 to 8 µM | – | 30 µM | – | 2 µM | 8 µM | 6 to 8 µM | – | 30.4 | 9.9 | 1.5 | 1.0 | affected very little | – | – |
| CCCC(=O)Oc1ccc(NC(=O)/C=C(C)/C=C/C=C(C)/C=C/C2=C(C)CCCC2(C)C)cc1 [KCBG60] | – | – | – | – | – | – | – | – | 50% | 1.1 | 0.7 | 1.3 | 0.9 | – | two times increased | about 50% |
| phenyl butylate | – | – | – | – | – | – | – | – | did not show invasion inhibiting effect | 0.8 | 0.7 | 1.2 | 1.1 | – | – | – |

Further lines, with some results ahead:

| IC50 ([1]; Homo sapiens, Ca-Ski) | IC50 [2] | IC50 ([3]; Homo sapiens, OVCAR-3, 48 hours) | IC50 [5] | IC50 ([7]; Homo sapiens, HCT-116, 48 hours) | IC50 [1] | IC50 ([3]; 48 hours) | IC50 ([7]; 48 hours) | Molecule | reduction of the number of invaded cells [4] | expression level of CAT enzyme, RARα + [6] | expression level of CAT enzyme, RARα − [6] | expression level of CAT enzyme, RXRα + [8] | expression level of CAT enzyme, RXRα − [8] | inhibition of MMP-1 mRNA expression [9] | MMP-1 mRNA reduction compared to ATRA and phenyl butylate ([9]; 24 hours) | reduction of MMP-1 mRNA level ([9]; 24 hours) |
| --- | --- | --- | --- | --- | --- | --- | --- | --- | --- | --- | --- | --- | --- | --- | --- | --- |
| 20 µM | 20 µM | > 100 µM | > 100 µM | 20 µM | – | – | – | CC1=C(/C=C/C(C)=C/C=C/C(C)=C/C(=O)O)C(C)(C)CCC1 [ATRA, All-trans-retinoic acid, reference compound] | 40% | 66.7 | 17.3 | – | – | – | – | – |
| – | 3 µM | – | 8 µM | – | 0.5 µM | 0.8 µM | 3 µM | CCCC(=O)Oc1cc(O)ccc1NC(=O)/C=C(C)/C=C/C=C(C)/C=C/C1=C(C)CCCC1(C)C [KCBG10, 2.2-[(2E,4E,6E,8E)-3,7-Dimethyl-9-(2,6,6-trimethylcyclohex-1-enyl)-nona-2,4,6,8-tetraenoylamino]-5-hydroxyphenylbutanoate] | – | – | – | – | – | weakly | – | – |
| – | 0.3 µM | – | 2.5 µM | – | 3 µM | 3.7 µM | 1.4 µM | CCCC(=O)Nc1cc(NC(=O)/C=C(C)/C=C/C=C(C)/C=C/C2=C(C)CCCC2(C)C)ccc1O [KCBG41, (2E,4E,6E,8E)-[3,7-dimethyl-9-(2,6,6-trimethylcyclohex-1-enyl)-nona-2,4,6,8-tetraenoylamino]-(3-butyrylamino-4-hydroxy)phenylamide] | – | – | – | – | – | strongly | – | – |
